Assay results taken from publication PMC5577582 (Toxins, 2017).
Positions of bridges follow the written chain, without caps; N, C: chain ends. Residues, ends and D or L forms follow the SMILES beside them.

How the values were obtained:
[1] = 30 μM peptide, 24 h; for Degradation at pH 12: phosphate buffer pH 12, 37 °C, RP-HPLC trace compared to pH 4
[2] = format: physicochemical; conditions: peptide 1 mg/mL in 9:1 v/v H2O/D2O, heated 20 to 80 °C, 500 MHz 1D 1H NMR
Procedure: A Bruker 500 MHz Avance nuclear magnetic resonance (NMR) spectrometer was used to heat the peptides (1 mg/mL in 9:1 v/v H2O/D2O) and to monitor structural changes at temperatures ranging from 20 to 80 °C. One-dimensional (1D) ^1H NMR spectra and two-dimensional (2D) nuclear Overhauser effect spectroscopy (NOESY) (200 ms mixing time) spectra were acquired and processed using TopSpin 3.5 (Bruker, Billerica, MA, USA) and CCPNMR Analysis 2.4.1 was used in the assignment of the NOE spectra.

[3] = Human serum isolated from male AB plasma; conditions: 37 °C, up to 24 h
[4] = format: physicochemical; conditions: 100 °C in water for 30 min, heating block, cooled to 25 °C, C18 RP-HPLC at 215 nm, MALDI-MS of the products
[5] = phosphate buffer adjusted to pH 12; conditions: 37 °C, up to 24 h

Q: Which results are given for `CC[C@H](C)[C@H](NC(=O)[C@H](CCC(=O)O)NC(=O)[C@H](Cc1ccc(O)cc1)NC(=O)[C@H](CCCCN)NC(=O)[C@@H]1CSSC[C@@H]2NC(=O)[C@H](CCC(N)=O)NC(=O)[C@H](CC(=O)O)NC(=O)[C@H](CC(N)=O)NC(=O)[C@H](CO)NC(=O)[C@@H]3CCCN3C(=O)[C@H](CC(N)=O)NC(=O)[C@@H]3CSSC[C@H](NC(=O)[C@H](C(C)C)NC(=O)[C@H](CC(C)C)NC(=O)[C@H](CC(N)=O)NC(=O)[C@H](CO)NC(=O)[C@H](CO)NC(=O)[C@H](CCCCN)NC(=O)[C@H](CSSC[C@H](NC(=O)[C@@H](N)CCC(=O)O)C(=O)N[C@@H](CC(C)C)C(=O)NCC(=O)N[C@@H](Cc4ccccc4)C(=O)NCC(=O)N[C@@H](CCCCN)C(=O)NCC(=O)N3)NC2=O)C(=O)N[C@@H](CO)C(=O)N[C@@H](CCCNC(=N)N)C(=O)N[C@@H](CCCCN)C(=O)N[C@@H](Cc2c[nH]cn2)C(=O)N[C@@H](CCCNC(=N)N)C(=O)N[C@@H](Cc2c[nH]c3ccccc23)C(=O)N1)C(N)=O` [HnTx-IV]?
A: Degradation at pH 12 [1]: completely degraded; 1D 1H NMR spectral changes at 80 °C [2]: peak broadening and loss of intensity

Q: Which not cleaved [3] does the source give for ECLEIFKACNPSNDQCCKSSKLVCSRKTRWCKYQI* here?
A: more than 90% peptide remaining after a 24 h incubation

Q: With `CC(C)C[C@@H]1NC(=O)[C@H](Cc2c[nH]cn2)NC(=O)[C@H](CCCCN)NC(=O)[C@@H]2CSSC[C@H](NC(=O)[C@@H](N)[C@@H](C)O)C(=O)N[C@@H](CCCNC(=N)N)C(=O)N[C@@H](Cc3ccc(O)cc3)C(=O)N[C@@H](CC(C)C)C(=O)N[C@@H](Cc3ccccc3)C(=O)NCC(=O)NCC(=O)N[C@H]3CSSC[C@H](NC(=O)[C@H](C)NC1=O)C(=O)N[C@@H](CCCNC(=N)N)C(=O)N[C@@H](CO)C(=O)N[C@@H](CC(=O)O)C(=O)NCC(=O)N[C@@H](CCCCN)C(=O)N[C@@H](Cc1ccc(O)cc1)C(=O)N[C@H](C(=O)N[C@@H](C)C(=O)N[C@@H](Cc1c[nH]c4ccccc14)C(=O)N[C@@H](CC(=O)O)C(=O)NCC(=O)N[C@H](C(=O)N[C@@H](Cc1ccccc1)C(=O)O)[C@@H](C)O)CSSC[C@H](NC(=O)[C@H](CC(=O)O)NC(=O)[C@H](C)NC(=O)[C@H]([C@@H](C)O)NC(=O)[C@H]([C@@H](C)O)NC(=O)[C@H](CCCCN)NC3=O)C(=O)N2` [SgTx-1] as the molecule, how does the “Loss of peptide at pH 2” value ([1]; phosphate buffer pH 2, 37 °C, RP-HPLC relative to pH 4) read?
A: small loss of peptide

Q: And the “Analytical RP-HPLC trace after boiling” value [4]?
A: minor degradation product

Q: And the “1D 1H NMR spectral changes at 80 °C” value [2]?
A: peak broadening and loss of intensity

Q: And the Mass loss of degradation product from native peptide after boiling?
A: 18 Da

Q: For ECLGFGKGCNPSNDQCCKSSNLVCSRKHRWCKYEI*, which not cleaved [3] is on record?
A: more than 90% peptide remaining after a 24 h incubation

Q: Which cleaved bond [5] does the source give for DCLGFLWKCNPSNDKCCRPNLVCSRKDKWCKYQI here?
A: Q-Ile34, 24 h

Q: What about the not cleaved [3] of the same molecule?
A: more than 90% peptide remaining after a 24 h incubation

Q: With DCLGFMRKCIPDNDKCCRPNLVCSRTHKWCKYVF* as the molecule, how does the not cleaved [3] read?
A: more than 90% peptide remaining after a 24 h incubation

Q: Which “Degradation at pH 12” value [1] does the source give for `CC[C@H](C)[C@H](NC(=O)[C@H](CCC(N)=O)NC(=O)[C@H](Cc1ccc(O)cc1)NC(=O)[C@H](CCCCN)NC(=O)[C@@H]1CSSC[C@@H]2NC(=O)[C@H](CCCCN)NC(=O)[C@H](CC(=O)O)NC(=O)[C@H](CC(N)=O)NC(=O)[C@H](CO)NC(=O)[C@@H]3CCCN3C(=O)[C@H](CC(N)=O)NC(=O)[C@@H]3CSSC[C@H](NC(=O)[C@H](C(C)C)NC(=O)[C@H](CC(C)C)NC(=O)[C@H](CC(N)=O)NC(=O)[C@@H]4CCCN4C(=O)[C@H](CCCNC(=N)N)NC(=O)[C@H](CSSC[C@H](NC(=O)[C@@H](N)CC(=O)O)C(=O)N[C@@H](CC(C)C)C(=O)NCC(=O)N[C@@H](Cc4ccccc4)C(=O)N[C@@H](CC(C)C)C(=O)N[C@@H](Cc4c[nH]c5ccccc45)C(=O)N[C@@H](CCCCN)C(=O)N3)NC2=O)C(=O)N[C@@H](CO)C(=O)N[C@@H](CCCNC(=N)N)C(=O)N[C@@H](CCCCN)C(=O)N[C@@H](CC(=O)O)C(=O)N[C@@H](CCCCN)C(=O)N[C@@H](Cc2c[nH]c3ccccc23)C(=O)N1)C(=O)O` [PaurTx-3] (H-DCLGFLWKCNPSNDKCCRPNLVCSRKDKWCKYQI-OH; disulfide 2-17, 9-23, 16-30) here?
A: larger proportion of the folded peptide remaining

Q: What about the “1D 1H NMR spectral changes at 80 °C” value [2] of the same molecule?
A: maintained narrow peaks but also showed some loss in intensity
